This is an account of results in PMC7057333 (ACS Omega, 2020).

The experiment concerns the target T1, LSD1 (Homo sapiens, UniProt O60341).
T1 construct: made in house; host or cells: Escherichia coli Rosetta 2 (pET15b)
As to the kind of experiment: HRP-coupled fluorescence LSD1 demethylation activity and inhibition assay, substrate H3_1-21 K4(Me). It counts as biochemical. The note with it: for inhibition of LSD1 (in words) / mode of inhibition: enzyme activity assay; for mode of inhibition: inhibition kinetics; for Km: Tris buffer pH 8.0.

[1] abbreviates: read-out: % inhibition at 100 μM.
Setting [2] is: 100 μM, supplement sheet SMILES and Activity, read-out: Inhibition at 100 μM (%).
Where [3] appears, read: supplement sheet SMILES and Activity, read-out: IC50.

pIC50, pKi: −log10 of the molar value. Read-outs that look alike come from different tables or passages of the source. Bridge positions count the residues as written; N and C are the ends. Square brackets hold non-standard residues; d marks the D form. Peptide text beside a SMILES is read from it. Cit = NC(=O)NCCC[C@H](N)C(=O)O

Take `CSCC[C@@H]1NC(=O)[C@@H](NC(=O)[C@H](CCCNC(=N)N)NC(=O)[C@H](C)N)CCCCn2cc(nn2)C[C@@H](C(=O)N[C@@H](C)C(=O)N[C@@H](CCCNC(=N)N)C(=O)N[C@@H](CCCCN)C(=O)N[C@@H](CO)C(=O)N[C@H](C(N)=O)[C@@H](C)O)NC(=O)[C@H](CCC(N)=O)NC1=O` [Peptide 35, ARK^azdMQG^prgARKST-NH2]: the “inhibition of LSD1 (in words)” value is recorded as “weak competitive inhibitors”. Moreover, the inhibition at 100 µM under setting [1] was below 30%. The pKi (read-out: Ki) was below 4.00.
Consider `CSCC[C@@H]1NC(=O)[C@@H](NC(=O)[C@H](CCCNC(=N)N)NC(=O)[C@H](C)N)CCC/C=C\CCC[C@H](C(=O)N[C@@H](C)C(=O)N[C@@H](CCCNC(=N)N)C(=O)N[C@@H](CCCCN)C(=O)N[C@@H](CO)C(=O)N[C@H](C(N)=O)[C@@H](C)O)NC(=O)[C@H](CCC(N)=O)NC1=O` [Peptide 25, ARG^penMQ*G^penARKST-NH2], for which the inhibition at 100 µM stood at 95% under setting [2] and 95% under setting [1].
As for `CSCC[C@@H]1NC(=O)[C@@H](NC(=O)[C@H](CCCNC(=N)N)NC(=O)[C@H](C)N)CCCCNC(=O)CC[C@@H](C(=O)N[C@@H](C)C(=O)N[C@@H](CCCNC(=N)N)C(=O)N[C@@H](CCCCN)C(=O)N[C@@H](CO)C(=O)N[C@H](C(N)=O)[C@@H](C)O)NC(=O)[C@H](CCC(N)=O)NC1=O` [Peptide 27], the inhibition at 100 µM reads like this: under setting [2], 65%; under setting [1], 65%. Also, the pKi (read-out: Ki) is 4.51. Under setting [3], the negative logarithm of the IC50 (pIC50) is 4.21.
`CSCC[C@@H]1NC(=O)[C@H](NC(=O)[C@H](CCCNC(=N)N)NC(=O)[C@H](C)N)CCC/C=C\CCC[C@@H](C(=O)N[C@@H](C)C(=O)N[C@@H](CCCNC(=N)N)C(=O)N[C@@H](CCCCN)C(=O)N[C@@H](CO)C(=O)N[C@H](C(N)=O)[C@@H](C)O)NC(=O)[C@H](CCC(N)=O)NC1=O` (relative stereo) [Peptide 24, AR*G^penMQG^penARKST-NH2]: the mode of inhibition result is reported as “competitive inhibitor”. The inhibition at 100 µM under setting [2] came out at 95%. Besides, the inhibition at 100 µM under setting [1] worked out at 95%.
“H3_1-21 K4(Me): N-terminal 21 amino acids of histone H3, mono-N-methylated at Lys4; LSD1 substrate [reference compound]”: the kcat (substrate of LSD1, 50 mM NaCl) stood at 0.6 s^–1. Further, the Km was determined as 20 µM (substrate of LSD1, 50 mM NaCl); 80 µM (substrate of LSD1, 150 mM NaCl); 10 µM (substrate of LSD1, without added NaCl).
Take `CSCC[C@@H]1NC(=O)[C@@H](NC(=O)[C@H](CCCNC(=N)N)NC(=O)[C@@H]2CCCN2)CCCCNC(=O)CC[C@@H](C(=O)N[C@@H](C)C(=O)N[C@@H](CCCNC(=N)N)C(=O)N[C@@H](CCCCN)C(=O)N[C@@H](CO)C(=O)N[C@H](C(N)=O)[C@@H](C)O)NC(=O)[C@H](CCC(N)=O)NC1=O` [Peptide 29] (H-PRKMQEARKST-NH2; lactam 3-6): the inhibition at 100 µM reads like this: under setting [2], 90%; under setting [1], 90%. Besides, under “read-out: Ki”, the pKi was 5.15. The pIC50 under setting [3] was 4.85.
Turning to `CSCC[C@@H]1NC(=O)[C@H](NC(=O)[C@H](CCCNC(=N)N)NC(=O)[C@H](C)N)CCC/C=C\CCC[C@H](C(=O)N[C@@H](C)C(=O)N[C@@H](CCCNC(=N)N)C(=O)N[C@@H](CCCCN)C(=O)N[C@@H](CO)C(=O)N[C@H](C(N)=O)[C@@H](C)O)NC(=O)[C@H](CCC(N)=O)NC1=O` (relative stereo) [Peptide 26, AR*G^penMQ*G^penARKST-NH2], the inhibition at 100 µM stood at 100% under setting [2] and 90% under setting [1].
For the compound `CSCC[C@@H]1NC(=O)[C@H](NC(=O)[C@H](CCCNC(=N)N)NC(=O)[C@H](C)N)CCC(=O)NCCCC[C@@H](C(=O)N[C@@H](C)C(=O)N[C@@H](CCCNC(=N)N)C(=O)N[C@@H](CCCCN)C(=O)N[C@@H](CO)C(=O)N[C@H](C(N)=O)[C@@H](C)O)NC(=O)[C@H](CCC(N)=O)NC1=O` (relative stereo) [Peptide 32], under setting [1], the inhibition at 100 µM was below 20%. Also, the negative-log Ki (pKi) (read-out: Ki) was below 4.00.
For `C=CC[C@H](NC(=O)[C@H](CCC(N)=O)NC(=O)[C@H](CCSC)NC(=O)[C@H](CC=C)NC(=O)[C@H](CCCNC(=N)N)NC(=O)[C@H](C)N)C(=O)N[C@@H](C)C(=O)N[C@@H](CCCNC(=N)N)C(=O)N[C@@H](CCCCN)C(=O)N[C@@H](CO)C(=O)N[C@H](C(N)=O)[C@@H](C)O` [Peptide 20, ARG^alyMQG^alyARKST-NH2], the inhibition at 100 µM under setting [2] was found to be 95% and the inhibition at 100 µM under setting [1] came to 95%.
Take `CSCC[C@H](NC(=O)[C@@H]1C/C=C\C[C@H](N)C(=O)N[C@@H](CCCNC(=N)N)C(=O)N1)C(=O)N[C@@H](CCC(N)=O)C(=O)N[C@H](C(=O)N[C@@H](C)C(=O)N[C@@H](CCCNC(=N)N)C(=O)N[C@@H](CCCCN)C(=O)N[C@@H](CO)C(=O)N[C@H](C(N)=O)[C@@H](C)O)[C@@H](C)O` [Peptide 19]: the inhibition at 100 µM worked out at 100% under setting [2] and 100% under setting [1].
Consider `CSCC[C@@H]1NC(=O)[C@@H](NC(=O)[C@H](CCCNC(N)=O)NC(=O)[C@H](C)N)CCC(=O)NCCCC[C@@H](C(=O)N[C@@H](C)C(=O)N[C@@H](CCCNC(=N)N)C(=O)N[C@@H](CCCCN)C(=O)N[C@@H](CO)C(=O)N[C@H](C(N)=O)[C@@H](C)O)NC(=O)[C@H](CCC(N)=O)NC1=O` [Peptide 33] (H-A[Cit]EMQKARKST-NH2; lactam 3-6), for which the inhibition at 100 µM runs as follows: under setting [2], 97%; under setting [1], 97%. Also, the pIC50 under setting [3] is 4.89.
Consider `CSCC[C@@H]1NC(=O)[C@H](NC(=O)[C@H](CCCNC(=N)N)NC(=O)[C@H](C)N)CCCCNC(=O)CC[C@@H](C(=O)N[C@@H](C)C(=O)N[C@@H](CCCNC(=N)N)C(=O)N[C@@H](CCCCN)C(=O)N[C@@H](CO)C(=O)N[C@H](C(N)=O)[C@@H](C)O)NC(=O)[C@H](CCC(N)=O)NC1=O` (relative stereo) [Peptide 31], for which the pKi is 5.64 and the mode of inhibition entry was “competitive inhibitor”. Further, the inhibition at 100 µM under setting [2] is 100%. For the same compound, under setting [1], the inhibition at 100 µM was 100%. For the same compound, the negative logarithm of the IC50 (pIC50) under setting [3] is 5.28.
Take `CSCC[C@@H]1NC(=O)[C@@H](NC(=O)[C@H](CCCNC(=N)N)NC(=O)[C@H](C)N)CCC/C=C\CCC[C@@H](C(=O)N[C@@H](C)C(=O)N[C@@H](CCCNC(=N)N)C(=O)N[C@@H](CCCCN)C(=O)N[C@@H](CO)C(=O)N[C@H](C(N)=O)[C@@H](C)O)NC(=O)[C@H](CCC(N)=O)NC1=O` [Peptide 23, ARG^penMQG^penARKST-NH2]: the inhibition at 100 µM reads like this: under setting [2], 75%; under setting [1], 75%.
On to `C=CCCC[C@H](NC(=O)[C@H](CCC(N)=O)NC(=O)[C@H](CCSC)NC(=O)[C@H](CCCC=C)NC(=O)[C@H](CCCNC(=N)N)NC(=O)[C@H](C)N)C(=O)N[C@@H](C)C(=O)N[C@@H](CCCNC(=N)N)C(=O)N[C@@H](CCCCN)C(=O)N[C@@H](CO)C(=O)N[C@H](C(N)=O)[C@@H](C)O` [Peptide 22, ARG^penMQG^penARKST-NH2], for which the inhibition at 100 µM runs as follows: under setting [2], 100%; under setting [1], 100%.
Consider `CSCC[C@@H]1NC(=O)[C@@H](NC(=O)[C@H](CCCNC(=N)N)NC(=O)[C@H](C)N)CCC(=O)NCCCC[C@@H](C(=O)N[C@@H](C)C(=O)N[C@@H](CCCNC(N)=O)C(=O)N[C@@H](CCCCN)C(=O)N[C@@H](CO)C(=O)N[C@H](C(N)=O)[C@@H](C)O)NC(=O)[C@H](CCC(N)=O)NC1=O` [Peptide 34] (H-AREMQKA[Cit]KST-NH2; lactam 3-6), for which the pKi was 5.10. Moreover, the inhibition at 100 µM under setting [2] was determined as 97%. Besides, under setting [1], the inhibition at 100 µM amounted to 97%. Further, under setting [3], the pIC50 was 4.85.
The compound `C=CC[C@H](NC(=O)[C@H](CCCNC(=N)N)NC(=O)[C@@H](N)CC=C)C(=O)N[C@@H](CCSC)C(=O)N[C@@H](CCC(N)=O)C(=O)N[C@H](C(=O)N[C@@H](C)C(=O)N[C@@H](CCCNC(=N)N)C(=O)N[C@@H](CCCCN)C(=O)N[C@@H](CO)C(=O)N[C@H](C(N)=O)[C@@H](C)O)[C@@H](C)O` [Peptide 18] showed a pIC50 of 5.30. Further, the inhibition at 100 µM under setting [2] was determined as 98%. Under setting [1], the inhibition at 100 µM was found to be 98%.
For `CSCC[C@@H]1NC(=O)[C@@H](NC(=O)[C@H](CCCNC(=N)N)NC(=O)[C@H](C)N)CCC(=O)NCCCC[C@@H](C(=O)N[C@@H](C)C(=O)N[C@@H](CCCNC(=N)N)C(=O)N[C@@H](CCCCN)C(=O)N[C@@H](CO)C(=O)N[C@H](C(N)=O)[C@@H](C)O)NC(=O)[C@H](CCC(N)=O)NC1=O` [Peptide 28], the pKi is 5.40 and the mode of inhibition result is given as “competitive inhibitor”. Besides, the inhibition at 100 µM under setting [2] was 98%. Besides, under setting [1], the inhibition at 100 µM was 98%. The pIC50 under setting [3] was 4.92.
Take `CSCC[C@@H]1NC(=O)[C@@H](NC(=O)[C@H](CCCNC(=N)N)NC(=O)[C@@H]2CCCN2)CCC(=O)NCCCC[C@@H](C(=O)N[C@@H](C)C(=O)N[C@@H](CCCNC(=N)N)C(=O)N[C@@H](CCCCN)C(=O)N[C@@H](CO)C(=O)N[C@H](C(N)=O)[C@@H](C)O)NC(=O)[C@H](CCC(N)=O)NC1=O` [Peptide 30] (H-PREMQKARKST-NH2; lactam 3-6): the inhibition at 100 µM under setting [2] amounted to 75% and the inhibition at 100 µM under setting [1] is 75%. Besides, the pKi (read-out: Ki) was 4.66. Moreover, under setting [3], the pIC50 is 4.36.
As to `CSCC[C@@H]1NC(=O)[C@@H](NC(=O)[C@H](CCCNC(=N)N)NC(=O)[C@H](C)N)Cc2cn(nn2)CCCC[C@@H](C(=O)N[C@@H](C)C(=O)N[C@@H](CCCNC(=N)N)C(=O)N[C@@H](CCCCN)C(=O)N[C@@H](CO)C(=O)N[C@H](C(N)=O)[C@@H](C)O)NC(=O)[C@H](CCC(N)=O)NC1=O` [Peptide 36, ARG^prgMQK^azdARKST-NH2], the “inhibition of LSD1 (in words)” value was “weak competitive inhibitors”. Besides, the inhibition at 100 µM under setting [2] was determined as 70%. The inhibition at 100 µM under setting [1] was 70%. Further, the pKi (read-out: Ki) was 4.52. Moreover, under setting [3], the pIC50 was 4.22.
